Assay results reported in US4404230A, “4-Hydroxy-1,2-Benzisothiazol-3(2H)-one-1,1-dioxides and salts thereof” (priority 1980, dated 1983).

Experiments:
taste testers = assay: Determination of the taste quality; assay type: in vivo
Description: The tests were performed in analogy to the method of DuBois, G. A. Crosby, R. A. Stephanson and R. E. Wingard Jr., J. Agric. […] The test compounds were used as aqueous solutions at a concentration which corresponds to an about 5% saccharose solution. As comparison compound saccharose was used. The tests were carried out under identical conditions. Only the characterization of the taste was evaluated, because the intensity was already determined in the preceding experiments. The following criteria were determined by each tester: Percentage sweet to percentage bitter to percentage another taste quality. Furthermore, the presence or absence of an after taste of the individual test compounds was determined. Each substance was tested twice with regard to five different determinations.

[1] = Determination of water-solubility; assay type: physicochemical
[2] = Stability of the solid substance in daylight and at 60° C.; assay type: physicochemical; details: daylight and 60° C., absence and presence of light, 4 weeks
Description: For the stability test, substance B at a concentration of 1% was dissolved in 0.1 N hydrochloric acid and kept at room temperature for 27 days. […] The solid substance was furthermore tested in daylight and at 60° C. in the absence and in the presence of light for 4 weeks.

mice [3] = assay: Ability of mice to hold themselves in rotating cylinders (muscle relaxing and/or ataxic effect); assay type: in vivo, Chbb:NMRI-mice; details: 400 mg/kg p.o.; for Animals which fell out: N = 10
Description: In analogy to the method described by Young and Lewis [Science 105, 368 (1947)], 10 female Chbb:NMRI-mice (SPF) having a body weight of 20-26 gm were tested to determine whether they were able to hold themselves in rotating cylinders after oral administration of 400 mg/kg of substance in aqua dist. The measurements were carried out 30-60, 90-120, 210-240 and 270-300 minutes after administration.

mice [4] = assay: Effect on maximum electroshock convulsions in mice; assay type: in vivo, Chbb:NMRI-mice; details: 200 mg/kg p.o.; for Number of protected animals: N = 10
Description: According to Swinyard, Brown and Goodman [J. Pharmacol. exp. Ther. 106, 319 (1952)], 200 mg/kg of substance B in aqua dist. solution were administered perorally to 10 male Chbb:NMRI-mice (SPF). After 30, 150 and 300 minutes tonic extensor spasms were induced by alternating current via head-electrodes (50 mA, 50 Hz, 2 sec. duration). Tonic extensor spasms of the extremities cannot be observed after treatment with substances having an anticonvulsive activity.

mice [5] = assay: Effect on reserpine-hypothermia in mice; assay type: in vivo, Chbb:NMRI-mice
Description: In analogy to Askew [Life Sci. 2, 275, (1963)] hypothermia was induced by s.c. administration of 3 mg/kg of reserpine in male Chbb:NMRI-mice (SPF) having a body weight of 20-26 gm. […] A control group received only the solvent p.o.; 1 to 4 hours after administration the temperature was measured every hour. The values given in the table are at average temperature values ±SD.

thrombocyte aggregation = assay: Effect on thrombocyte aggregation induced by collagen; assay type: cell-based; details: 1×10^-4 mol/liter, collagen-induced
Description: The thrombocyte aggregation was measured according to Born and Cross [J. Physiol. 170, 397 (1964)] in platelet-rich plasma obtained by centrifuging citrate blood. The change in the maximum aggregation rate in % compared with a control, and the percent change in the "optical density" were the measured parameters. The aggregation was induced by collagen.

Aspergillus niger = assay: Fungistasis, serial dilution test; assay type: cell-based; details: 320 μg/ml
Description: (§1) Substance B was tested with regard to its bacteria- and fungi-inhibiting effect by the serial dilution test and agar diffusion test.

[6] = test system: Candida albicans ATCC 10231; assay: Fungistasis, serial dilution test; assay type: cell-based; details: 320 μg/ml
Description: as §1

[7] = test system: Trychophyton mentagrophytes ATCC 9129; assay: Fungistasis, serial dilution test; assay type: cell-based; details: 320 μg/ml
Description: as §1

rats = assay: Effect on diuresis in water-loaded rats; assay type: in vivo, Chbb:THOM-rats; details: for Cl^- excretion / K^+ excretion / Na^+ excretion / Urine: 5 hours
Description: Male Chbb:THOM-rats (SPF) having a body weight of 180-210 gm were kept away from food with free access to water for 24 hours before the test. Substance B was administered orally at dosages of 50, 100 and 200 mg/kg in aqua dist. solution of the rate of 1 ml/100 gm body weight to 6 animals/dose. Additionally, 4 ml water/100 gm body weight were administered orally. A control group received only the solvent and the same additional amount of water.
Five hours after treatment, the excreted volume of urine of each group was measured, and the concentration of Na^+, K^+ and Cl^- was determined photometrically and complexometrically.

eye of the rabbit = assay: Local compatibility in the eye of the rabbit (mucosa compatibility); assay type: in vivo
Source text: Groups of 4 rabbits each of both sexes were given 1 drop of a 1% solution of substance B in aqua dist. into the conjunctival sack of the eye. […] The second eye of each animal served as control.

Dog = assay: Test for acute toxicity, dog; details: for Animals which died: 2 animals
Description: The acute toxicity was determined after oral administration of substance B to male and female mice, rats and dogs. The substance was administered to mice and rats in the form of a suspension in tylose and to dogs in the form of a solution in water.

Salmonella typhimurium = assay: Prior serial dilution test for inhibition of microorganism growth (AMES-system); assay type: cell-based; details: highest dosage used
Description: Compound B was tested at concentrations of 0.25, 2.5, 5 and 10 mg/plate.

O=C1NS(=O)(=O)c2cccc(O)c21.[Na]
purity of the taste (taste testers): 94-96% | After taste (taste testers; 1:10000, 10 determinations): 5 | Percentage bitter (taste testers; 1:10000, 10 determinations): 2% | Percentage other taste (taste testers; 1:10000, 10 determinations): 2% | Percentage sweet (taste testers; 1:10000, 10 determinations): 96% | solubility [1]: > 1 gm/10 ml of water | water-solubility (in words) [1]: easily soluble in water | stability of solid substance [2]: No changes could be detected either | effect on holding ability of mice (in words) (mice [3]): does not affect the holding ability of mice | muscle relaxing or coordination inhibiting effect (in words) (mice [3]): no muscle relaxing or coordination inhibiting effect | Animals which fell out (mice [3]; 30-60 min): 2 | Animals which fell out (mice [3]; 90-120 min): 2 | Animals which fell out (mice [3]; 210-240 min): 1 | Animals which fell out (mice [3]; 270-300 min): 0 | anticonvulsive activity (in words) (mice [4]): does not show any anticonvulsive activity | Number of protected animals (mice [4]; 30 min): 0 | Number of protected animals (mice [4]; 150 min): 0 | Number of protected animals (mice [4]; 300 min): 0 | body temperature (mice [5]; 100 mg/kg p.o., 1 hour): 26.0 °C | body temperature (mice [5]; 100 mg/kg p.o., 2 hours): 26.7 °C | body temperature (mice [5]; 100 mg/kg p.o., 3 hours): 26.6 °C | body temperature (mice [5]; 100 mg/kg p.o., 4 hours): 26.8 °C | body temperature (mice [5]; 400 mg/kg p.o. [sic], 1 hour): 24.0 °C | body temperature (mice [5]; 400 mg/kg p.o. [sic], 2 hours): 24.7 °C | body temperature (mice [5]; 400 mg/kg p.o. [sic], 3 hours): 25.3 °C | body temperature (mice [5]; 400 mg/kg p.o. [sic], 4 hours): 25.9 °C | effect on reserpine-induced hypothermia (in words) (mice [5]; 40 and 100 mg/kg p.o.): does not show an effect on hypothermia in mice induced by reserpine | effect on thrombocyte aggregation (in words) (thrombocyte aggregation): does not show any effect on thrombocyte aggregation induced by collagen | inhibiting effect (Aspergillus niger): did not show any inhibiting effect | inhibiting effect [6]: did not show any inhibiting effect | inhibiting effect [7]: did not show any inhibiting effect | Cl^- excretion (rats; 50 mg/kg p.o.): 616.4 Microval/kg | K^+ excretion (rats; 50 mg/kg p.o.): 456.6 Microval/kg | Na^+ excretion (rats; 50 mg/kg p.o.): 456.6 Microval/kg | Urine (rats; 50 mg/kg p.o.): 45.7 mL/kg | Cl^- excretion (rats; 100 mg/kg p.o.): 325.5 Microval/kg | K^+ excretion (rats; 100 mg/kg p.o.): 321.5 Microval/kg | Na^+ excretion (rats; 100 mg/kg p.o.): 401.9 Microval/kg | Urine (rats; 100 mg/kg p.o.): 40.2 mL/kg | Cl^- excretion (rats; 200 mg/kg p.o.): 535.7 Microval/kg | K^+ excretion (rats; 200 mg/kg p.o.): 425.1 Microval/kg | Na^+ excretion (rats; 200 mg/kg p.o.): 467.6 Microval/kg | Urine (rats; 200 mg/kg p.o.): 42.5 mL/kg | effect on diuresis (in words) (rats; 50, 100 and 200 mg/kg p.o.): does not show any effect on diuresis in rats | change in the pupil (eye of the rabbit; 1% solution): no change in the pupil | irritation of the conjunctiva (eye of the rabbit; 1% solution): No irritation of the conjunctiva | change in the pupil (eye of the rabbit; 10%): no change in the pupil | irritation of the conjunctiva (eye of the rabbit; 10%): No irritation of the conjunctiva | incompatibility when dropped into the eye (in words) (eye of the rabbit; rabbit, in vivo): does not show any incompatibility | Animals which died (Dog; 5 g/kg oral, 1 day): 0 | Animals which died (Dog; 5 g/kg oral, 7 days): 0 | Animals which died (Dog; 5 g/kg oral, 14 days): 0 | deaths (in words) (Dog; 5 g/kg oral, during the observation time): no animals died | behavior (Dog; dog, in vivo, po): completely normal behavior | toxic symptoms (Dog; dog, in vivo, po): no toxic symptoms could be observed | inhibition of the microorganism growth (Salmonella typhimurium): did not show an inhibition of the microorganism growth
